Reference: BigSolDB 2.1

Clc1cc(Cl)cc(Cl)c1
solubility (mole fraction)
Settings | in acetone | in cyclohexane | in ethyl acetate | in isobutanol | in isopropanol | in n-butanol | in n-propanol | in toluene
273.15 K | 0.0419 | – | 0.0928 | 0.0246 | 0.0144 | 0.036 | 0.0211 | 0.169
275.65 K | 0.0472 | – | 0.102 | 0.028 | 0.0167 | 0.0406 | 0.0238 | 0.184
278.15 K | 0.0524 | – | 0.113 | 0.0321 | 0.0195 | 0.0467 | 0.0273 | 0.199
280.65 K | 0.0581 | 0.131 | 0.123 | 0.0367 | 0.0225 | 0.0529 | 0.0313 | 0.218
283.15 K | 0.0644 | 0.147 | 0.137 | 0.042 | 0.0256 | 0.0592 | 0.0359 | 0.24
285.65 K | 0.0718 | 0.165 | 0.151 | 0.0478 | 0.0297 | 0.0679 | 0.0406 | 0.26
288.15 K | 0.079 | 0.186 | 0.164 | 0.0545 | 0.0339 | 0.0767 | 0.0466 | 0.287
290.65 K | 0.0876 | 0.207 | 0.179 | 0.0616 | 0.0384 | 0.0852 | 0.0532 | 0.311
293.15 K | 0.0963 | 0.231 | 0.195 | 0.0708 | 0.0441 | 0.0969 | 0.0598 | 0.337
295.65 K | 0.106 | 0.255 | 0.213 | 0.0804 | 0.0509 | 0.107 | 0.0677 | 0.368
298.15 K | 0.116 | 0.286 | 0.234 | 0.091 | 0.058 | 0.122 | 0.0764 | 0.399
300.65 K | 0.129 | 0.318 | 0.253 | 0.102 | 0.0649 | 0.136 | 0.0853 | 0.427
303.15 K | 0.14 | 0.35 | 0.274 | 0.117 | 0.074 | 0.15 | 0.0973 | 0.463
305.65 K | 0.154 | 0.391 | 0.298 | 0.131 | 0.0849 | 0.166 | 0.109 | 0.5
308.15 K | 0.171 | 0.434 | 0.325 | 0.147 | 0.0969 | 0.185 | 0.122 | 0.539
310.65 K | 0.192 | 0.481 | 0.352 | 0.166 | 0.11 | 0.207 | 0.138 | 0.575
313.15 K | 0.213 | 0.528 | 0.38 | 0.191 | 0.127 | 0.233 | 0.158 | 0.619
